From patent EP0539180A1, “Antiviral agents” (SANWA KAGAKU KENKYUSHO CO., LTD., priority 1991, dated 1993)
Like-named read-outs stand apart in the source and are kept apart here. Marks after values point to notes of the source that are not given here.

Assays:
GMK cells = assay: Cytotoxicity, microscopically observed in GMK cell cultures; format: cell-based, green monkey
HSV-1 (Miyama strain) [1] = assay: In vitro antiviral activity against HSV-1 (CPE inhibition, virus titer reduction) in GMK cells; format: cell-based; conditions: read-out: Antiviral Activity (ΔTCID50 (log10))
Description: The virus titer (TCID₅₀) was determined from CPE of virus infected culture. Antiviral effects of the test compounds were calculated from TCID₅₀ values of the test compounds treated and control cultures and represented by ΔTCID₅₀ (log₁₀).
In this regard, it is noted that prior to be added to the incubation systems, the compounds were dissolved in MEM or ethanol media at 10 mg/ml concentrations, and diluted with MEM media supplemented with 1% fetal bovine serum.

HSV-1 (Miyama strain) [2] = assay: In vivo anti-HSV-1 activities in intraperitoneally infected mice (Testing 4); design: species or system BALB/c mice; conditions: mice infected with 322 PFU HSV-1; for Survival Ratios after 21 days (%): control 0; for Mean Survival Days: control 6.9
HSV-1 (Miyama strain) [3] = assay: In vivo anti-HSV-1 activities in intraperitoneally infected mice (Testing 5); design: species or system BALB/c mice; conditions: mice infected with 322 PFU HSV-1; for Survival Ratios after 21 days (%): control 0; for Mean Survival Days: control 6.9, *: P<0.05 (U Test)
[4] = Human alphaherpesvirus 1, 10 μg/ml, HSV-1 (Miyama strain), GMK cells
[5] = Human alphaherpesvirus 1, 50 μg/ml, HSV-1 (Miyama strain), GMK cells
[6] = 5 mg/kg intraperitoneally for five days
[7] = 20 mg/kg intraperitoneally for five days
[8] = 10 mg/kg intraperitoneally for five days
[9] = 40 mg/kg intraperitoneally for five days

SMILES | cytotoxicities (GMK cells; 100 μg/ml) | log reduction at 10 µg/mL (HSV-1 (Miyama strain) [1]; Human alphaherpesvirus 1, GMK) | log reduction at 50 µg/mL (HSV-1 (Miyama strain) [1]; Human alphaherpesvirus 1, GMK) | log reduction at 100 µg/mL (HSV-1 (Miyama strain) [1]; Human alphaherpesvirus 1, GMK) | other results
Clc1cccc(N2CCNCC2)c1 [Compound 2, 1-(m-chlorophenyl)piperazine hydrochlorate] | (±±) | 0.46 | 1.23 | – | –
Clc1ccc(N2CCNCC2)cc1 [Compound 3, 1-(p-chlorophenyl)piperazine hydrochlorate] | (±±) | 0 | 1.5 | – | –
COc1ccccc1N1CCNCC1 [Compound 4, 1-(o-methoxyphenyl)piperazine hydrochlorate] | (+) | 0.56 | 1.56 | 2.5 | –
Fc1ccccc1N1CCNCC1 [Compound 5, 1-(o-fluorophenyl)piperazine hydrochlorate] | (+) | 0.33 | 1.33 | 1.56 | –
Fc1ccc(N2CCNCC2)cc1 [Compound 6, 1-(p-fluorophenyl)piperazine hydrochlorate] | (+) | 0 | 0.5 | 1.33 | –
c1ccc(N2CCNCC2)cc1 [Compound 7, 1-phenylpiperazine] | (+) | – | – | 0.83 | –
c1ccc(N2CCCCC2)cc1 [Compound 8, 1-phenylpiperidine] | (+) | – | – | 0.5 | –
COc1ccccc1N1CCN(CCN)CC1 [Compound 9, 4-(aminoethyl)-1-(o-methoxyphenyl)piperazine] | – | – | – | – | log reduction at 10 µg/mL (HSV-1 (Miyama strain) [1]; [4]): 0.87; log reduction at 50 µg/mL (HSV-1 (Miyama strain) [1]; [5]): 1.8; log reduction at 100 µg/mL (HSV-1 (Miyama strain) [1]; Human alphaherpesvirus 1, 100 μg/ml, HSV-1 (Miyama strain), GMK cells): 2.53; Survival Ratios after 21 days (%) (HSV-1 (Miyama strain) [2]; [6]): 70%; Mean Survival Days (HSV-1 (Miyama strain) [2]; [6]): 17.5* Days; Survival Ratios after 21 days (%) (HSV-1 (Miyama strain) [2]; [7]): 50%; Mean Survival Days (HSV-1 (Miyama strain) [2]; [7]): 10.9* Days
CC[C@]12CCCN3CCc4c(n(c5ccccc45)C(=NOCC(O)CN4CCN(c5ccccc5OC)CC4)C1)[C@@H]32 (stereo partly drawn) [Compound 10] | – | – | – | – | cytotoxicities (GMK cells; 50 μg/ml): (±); Survival Ratios after 21 days (%) (HSV-1 (Miyama strain) [3]; [6]): 50%; Mean Survival Days (HSV-1 (Miyama strain) [3]; [6]): 15.4* Days; Survival Ratios after 21 days (%) (HSV-1 (Miyama strain) [3]; [8]): 60%; Mean Survival Days (HSV-1 (Miyama strain) [3]; [8]): 15.4* Days; Survival Ratios after 21 days (%) (HSV-1 (Miyama strain) [3]; [7]): 50%; Mean Survival Days (HSV-1 (Miyama strain) [3]; [7]): 16.4* Days; Survival Ratios after 21 days (%) (HSV-1 (Miyama strain) [3]; [9]): 50%; Mean Survival Days (HSV-1 (Miyama strain) [3]; [9]): 15.5* Days; log reduction at 10 µg/mL (HSV-1 (Miyama strain) [1]; [4]): > 3; log reduction at 50 µg/mL (HSV-1 (Miyama strain) [1]; [5]): > 2.17
FC(F)(F)c1ccccc1N1CCNCC1 [Compound 11] | (±) | 2 | > 4 | < 4 | –
Clc1cccc(Cl)c1N1CCNCC1 [Compound 12] | (±) | 1 | 2.67 | > 3.3 | –
